In patent publication US11053207B2, “Indoleamine-2,3-dioxygenase inhibitor and preparation method therefor” (SHANGHAI INSTITUTE OF ORGANIC CHEMISTRY, CHINESE ACADEMY OF …, priority 2014, dated 2021):
“And” between values parts separate entries of the source, which are not always exact repeats. Equal entries are not always repeated. Where two headings read alike, the source gives them in different places.

Legend:
[1] = Pharmacokinetics of compound 6 in ICR mice after oral compound 13 (prodrug); format: in vivo; conditions: for AUMC0-inf / AUMC0-t / Kel / MRTPO: compound 6 in ICR mice after oral compound 13 30 mg/kg
Protocol: Compound 13 was orally administered to ICR mice. Blood samples were collected at different time points. LC-MS/MS was used to determine the concentration of compound 6 in the plasma of mice after administration of the test substance, and the relevant pharmacokinetic parameters were calculated, the pharmacological properties of compound 6 in mice was investigated.
Experimental design: 3 ICR mice, provided by Suzhou Zhaoyan New Drug Research and Development Co., Ltd.; the experiment was carried out according to Table 6.
Each animal was anesthetized with isoflurane and thereafter about 25 μL of blood was collected through the eyepit, anticoagulated with EDTAK2, the collecting time points were: before administration of the test substance (0 hr) and 15 min, 30 min, 1 h, 2 h, 4 h, 6 h, 8 h and 24 h after administration of the test substance. Blood samples were collected and placed on ice and the plasma was centrifuged and separated within 1 hour (centrifugal conditions: 5000 rpm, 10 minutes, 4° C.). The collected plasma was stored at −20° C. before analysis.
Data acquisition and control system software was the Analyst1.5.1 software (Applied Biosystem). The sample peak integral method was automatic integration; The ratio of the peak area of the sample and the peak area of the internal standard was taken as the index and the concentration of the sample was regressed. Regression method: linear regression, the weight coefficient was 1/X^2. Pharmacokinetic parameters were analyzed with a non-compartmental model using WinNonlin Professional v6.3 (Pharsight, USA). Cmax is the measured maximum blood concentration, and the area under the blood concentration-time curve AUC(0→t) was calculated from the trapezoidal method, and Tmax is the peak blood concentration time after administration. The experimental data is expressed as “mean±SD, n≥3” or “mean” (mean, n=2).

Hela cells = assay: Test for cell activity (Hela cells, interferon γ, kynurenine read at 480 nm); format: cell-based; conditions: human interferon γ 50 ng/mL, 48 h
Protocol: Hela cells (100 μL) were inoculated on a 96-well plate at an inoculation amount of 5×10^3 per well and grown overnight. The next day, after the compound was diluted, 1 μL was added to a 96-well plate and then 100 μL of medium containing human interferon y (final concentration of 50 ng/mL) was added to the 96-well plate to allow the final volume to be 200 μL. 48 h after incubating, 140 μL of supernatant in each well was transferred to a new 96-well plate. 10 μL of 6.1 N trichloroacetic acid was added to each well and mixed and incubated at 50° C. for 30 min, IDO catalyzed N-formyl canine urea to become canine urea. The reaction mixture was centrifuged at 2500 rpm for 10 minutes to remove the precipitate. 100 μL of supernatant in each well was transferred to a new 96-well plate and mixed with 100 μL of 2% dimethylaminobenzaldehyde acetic acid solution. After the canine urea was separated, the value was measured at 480 nm using a SPECTRAmax i3 reader.

[2] = Pharmacokinetics of compound 6 in rats (intragastric, intravenous); format: in vivo, SD rats; conditions: for Vd: read-out: Vss
Protocol: 6 SD rats, male, weight 180-200 g, intragastric or intravenous administration of compound 6 (Table 3):
For intragastric administration, the compound was formulated into a suspension with 1% MC, and for intravenous injection the compound was formulated with DMSO: 20% PEG400 (5:95). Fasting for 12 hours before the test, free drinking water. The rats were all fed 2 hours after administration.
Intragastric administration: 0.25, 0.5, 1.0, 2.0, 4.0, 6.0, 8.0 and 24 h after administration;
Intravenous administration: 5 min, 0.25, 0.5, 1.0, 2.0, 4.0, 6.0, 8.0 and 24 h after administration;
At the above set point, the venous blood was taken from the posterior venous plexus of the rat eyes, and placed in a EDTA-2K tube, centrifuged at 11000 rpm for 5 min, the plasma was separated and frozen in a −20° C. refrigerator.
The concentration of compound 6 in rat plasma was determined by LC/MS/MS.
Pharmacokinetic parameters after administration were calculated using the non-compartmental model of the WinNonlin 5.3 software (Pharsight, USA).
Peak concentration Cmax and peak time Tmax are measured value;
Drug area under the curve AUC0−t value: using trapezoidal method; AUC0−∞=AUC0−t+Ct/ke, Ct is the blood concentration at the last measurable time point, ke is the elimination rate constant;
Elimination half-life t1/2=0.693/ke;
Mean residence time MRT=AUMC/AUC.
Clearance rate CL=D/AUC0−∞;
Steady state distribution volume Vss=CL×MRT
Absolute Bioavailability F=(AUCintragastric×Dintravenous)/(AUCintravenous×Dintragastric)×100%

[3] = intragastric 10 mg/kg, individual rat
[4] = intravenous 1 mg/kg, individual rat
[5] = male, SD, rat, plasma, iv, 1 mg/kg, intravenous 1 mg/kg, individual rat
[6] = male, SD, rat, plasma, iv, 1 mg/kg, intravenous 1 mg/kg, mean
[7] = male, SD, rat, plasma, po, 10 mg/kg, intragastric 10 mg/kg, individual rat
[8] = male, SD, rat, plasma, po, 10 mg/kg, intragastric 10 mg/kg, mean

Structure (SMILES): CS(=O)(CCNc1nonc1/C(=N/O)Nc1ccc(F)c(Br)c1)=NC#N (racemic) [compound 6, (±)(Z)—N-(3-bromo-4-fluorophenyl)-N′-hydroxy-4-((2-(thio-methylsulfoxidecyanoimine)ethyl)amino)-1,2,5-oxadiazole-3-carboxamidine]
- pharmacokinetic parameters (overall judgement) ([1]; ICR mice, after oral compound 13): excellent pharmacokinetic parameters
- AUMC0-inf ([1]; individual mouse): 46297 hr*hr*ng/mL and 13854 hr*hr*ng/mL and 21447 hr*hr*ng/mL
- AUMC0-t ([1]; individual mouse): 19793 hr*hr*ng/mL and 12189 hr*hr*ng/mL and 16309 hr*hr*ng/mL
- Kel ([1]; individual mouse): 0.0695 h⁻¹ and 0.156 h⁻¹ and 0.123 h⁻¹
- MRTPO ([1]; individual mouse): 15.0 h and 6.25 h and 7.99 h
- AUMC0-inf ([1]; mean): 27199 hr*hr*ng/mL
- AUMC0-t ([1]; mean): 16097 hr*hr*ng/mL
- Kel ([1]; mean): 0.116 h⁻¹
- MRTPO ([1]; mean): 9.76 ± 4.64 h and 9.76 h
- IC50 (Hela cells): 1.8 nM
- AUC0-t [2, 3]: 2817 ng·h/mL and 2795 ng·h/mL
- AUC0-∞ [2, 3]: 3007 ng·h/mL and 3008 ng·h/mL
- Cmax [2, 3]: 854 ng/mL and 659 ng/mL
- MRT [2, 3]: 3.27 h and 3.47 h
- Tmax [2, 3]: 1.00 h
- t1/2 [2, 3]: 1.80 h
- AUC0-t ([2]; intragastric 10 mg/kg, mean): 2651 ng·h/mL
- AUC0-t [2, 4]: 505 ng·h/mL and 547 ng·h/mL
- AUC0-∞ [2, 4]: 534 ng·h/mL and 555 ng·h/mL
- CL [2, 4]: 31.2 mL/min/kg and 30 mL/min/kg
- MRT [2, 4]: 2.03 h and 1.67 h
- Vss [2, 4]: 3.79 L/kg and 3.02 L/kg
- t1/2 [2, 4]: 2.51 h and 1.32 h
- AUC0-t ([2]; intravenous 1 mg/kg, mean): 533 ng·h/mL
- CL ([2]; intravenous 1 mg/kg, mean): 30.3 mL/min/kg
- AUC(0-inf) [2, 5]: 563 ng·h/mL
- clearance [2, 5]: 29.7 mL/min/kg
- half-life [2, 5]: 1.71 h
- AUC0-t ([2]; male, SD, rat, plasma, iv, 1 mg/kg, intravenous 1 mg/kg, individual rat, read-out: AUC0-t): 546 ng·h/mL
- MRT ([2]; male, SD, rat, plasma, iv, 1 mg/kg, intravenous 1 mg/kg, individual rat, read-out: MRT): 1.91 h
- Vd [2, 5]: 3.39 L/kg
- AUC(0-inf) [2, 6]: 551 ng·h/mL
- clearance [2, 6]: 30.3 mL/min/kg
- half-life [2, 6]: 1.85 h
- AUC0-t ([2]; male, SD, rat, plasma, iv, 1 mg/kg, intravenous 1 mg/kg, mean, read-out: AUC0-t): 533 ng·h/mL
- MRT ([2]; male, SD, rat, plasma, iv, 1 mg/kg, intravenous 1 mg/kg, mean, read-out: MRT): 1.87 h
- Vd [2, 6]: 3.4 L/kg
- bioavailability ([2]; male, SD, rat, plasma, oral, intragastric 10 mg/kg vs intravenous 1 mg/kg, dose normalized, read-out: F (absolute bioavailability)): 49.8%
- AUC(0-inf) [2, 7]: 2480 ng·h/mL
- half-life [2, 7]: 1.58 h
- AUC0-t ([2]; male, SD, rat, plasma, po, 10 mg/kg, intragastric 10 mg/kg, individual rat, read-out: AUC0-t): 2340 ng·h/mL
- Cmax ([2]; male, SD, rat, plasma, po, 10 mg/kg, intragastric 10 mg/kg, individual rat, read-out: Cmax): 593 ng/mL
- MRT ([2]; male, SD, rat, plasma, po, 10 mg/kg, intragastric 10 mg/kg, individual rat, read-out: MRT): 3.35 h
- Tmax ([2]; male, SD, rat, plasma, po, 10 mg/kg, intragastric 10 mg/kg, individual rat, read-out: Tmax): 2 h
- AUC(0-inf) [2, 8]: 2830 ng·h/mL
- half-life [2, 8]: 1.73 h
- AUC0-t ([2]; male, SD, rat, plasma, po, 10 mg/kg, intragastric 10 mg/kg, mean, read-out: AUC0-t): 2650 ng·h/mL
- Cmax ([2]; male, SD, rat, plasma, po, 10 mg/kg, intragastric 10 mg/kg, mean, read-out: Cmax): 702 ng/mL
- MRT ([2]; male, SD, rat, plasma, po, 10 mg/kg, intragastric 10 mg/kg, mean, read-out: MRT): 3.36 h
- Tmax ([2]; male, SD, rat, plasma, po, 10 mg/kg, intragastric 10 mg/kg, mean, read-out: Tmax): 1.33 h
